In patent US20040142322A1, “Continuous non-radioactive polymerase assay” (priority 2002, published 2004):

Legend:
Assay type in all cases: biochemical
HCV NS5B = target: T1, HCV NS5B (Hepatitis C virus genotype 1b, UniProt P26663); assay: Continuous non-radioactive (luciferase-coupled) NS5B polymerase assay, inhibitor test; conditions: NS5B 20 nM, GTP 1 μM, inhibitor 0.1-2.5 μM, FIG. 3
T1 construct: The HCV NS5BΔ55 enzyme was prepared as described by Ferrari et al; made in house
Procedure: Polymerase assays were performed at room temperature using a 100 μl reaction mix in a 96-well plate. Final reaction conditions for NS5B were modified from those used by Ferrari et al. J. Virol. 73:1649-54 (1999) [20 mM Hepes pH 7.3; 7.5 mM DTT; 20 U/ml RNAsin; 0.5 μg/ml oligo(G)12; 5 μg/ml poly(C); 1 μM GTP; 10 mM MgCl2; 60 mM NaCl; 100 μg/ml BSA; and NS5B]. NS5B assay mixtures were supplemented with components for the ATP sulfurylase and luciferase coupled enzyme reactions [0.5 mM coenzyme A (CoA); 310 μM D-luciferin; 1 nM luciferase; 5 μM APS; 0.03-0.3 U ATP sulfurylase (see Brief Description of the Drawings for specific conditions)]. […]
To test the effect of inhibitors on the NS5B polymerase reaction, compounds were diluted in the appropriate diluents and added to the GTP-containing mixture. Microtiter plates containing the reaction samples were immediately transferred to the luminometer for detection of the light signal generated over time, taking a 0.2-1.0 s reading of each well every 30-60 s (time intervals depend on the number of samples tested). Readings were monitored in comparison to a no-NS5B reaction as a control for ATP generation in the absence of polymerase activity. […]

firefly luciferase [1] = target: T2, firefly luciferase (Photinus pyralis, UniProt P08659)
T2 construct: purchased Promega (Madison, Wis.)
Procedure: (§1) To test the effect of NTPs on the ATP sulfurylase/luciferase coupled read-out system, control reactions for NS5B assays (with 0.3 U ATP sulfurylase) were assembled as above omitting RdRp and RNA. Reactions were initiated by addition of nucleotide (1 μM final). To reduce free PPi in commercial NTPs, 10 mM stocks were pretreated with inorganic pyrophosphatase. A 10 μl aliquot of the NTP stock was incubated with 0.5 U of thermostable inorganic pyrophosphatase for 10 minutes at 75° C.; untreated NTP samples were processed in parallel as controls. Treated and untreated NTPs were diluted to 100 μM working stocks for subsequent assays.
(§2) Another possible source of background is direct utilization of the NTPs by the ATP sulfurylase/luciferase cascade. To address this possibility, reactions without either RdRp or template were examined.

firefly luciferase [2] = conditions: reactions without RdRp or template, nucleotide 1 μM final
Procedure: as §1, §2

T2 sequence (P08659 whole entry): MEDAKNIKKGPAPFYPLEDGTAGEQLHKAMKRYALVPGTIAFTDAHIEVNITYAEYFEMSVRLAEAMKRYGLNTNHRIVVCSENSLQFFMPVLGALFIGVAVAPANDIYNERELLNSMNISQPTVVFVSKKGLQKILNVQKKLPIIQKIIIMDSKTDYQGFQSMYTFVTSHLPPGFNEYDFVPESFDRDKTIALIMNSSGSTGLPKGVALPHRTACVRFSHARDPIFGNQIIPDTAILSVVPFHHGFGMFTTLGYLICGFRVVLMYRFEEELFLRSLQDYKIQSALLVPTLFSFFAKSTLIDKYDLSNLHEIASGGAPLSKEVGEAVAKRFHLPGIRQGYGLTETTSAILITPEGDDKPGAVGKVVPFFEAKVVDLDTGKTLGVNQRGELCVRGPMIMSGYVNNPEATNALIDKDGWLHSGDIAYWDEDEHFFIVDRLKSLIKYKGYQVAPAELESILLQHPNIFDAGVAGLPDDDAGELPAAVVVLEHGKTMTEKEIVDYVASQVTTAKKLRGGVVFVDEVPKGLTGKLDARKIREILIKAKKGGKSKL
T1 sequence (P26663 2420-2955): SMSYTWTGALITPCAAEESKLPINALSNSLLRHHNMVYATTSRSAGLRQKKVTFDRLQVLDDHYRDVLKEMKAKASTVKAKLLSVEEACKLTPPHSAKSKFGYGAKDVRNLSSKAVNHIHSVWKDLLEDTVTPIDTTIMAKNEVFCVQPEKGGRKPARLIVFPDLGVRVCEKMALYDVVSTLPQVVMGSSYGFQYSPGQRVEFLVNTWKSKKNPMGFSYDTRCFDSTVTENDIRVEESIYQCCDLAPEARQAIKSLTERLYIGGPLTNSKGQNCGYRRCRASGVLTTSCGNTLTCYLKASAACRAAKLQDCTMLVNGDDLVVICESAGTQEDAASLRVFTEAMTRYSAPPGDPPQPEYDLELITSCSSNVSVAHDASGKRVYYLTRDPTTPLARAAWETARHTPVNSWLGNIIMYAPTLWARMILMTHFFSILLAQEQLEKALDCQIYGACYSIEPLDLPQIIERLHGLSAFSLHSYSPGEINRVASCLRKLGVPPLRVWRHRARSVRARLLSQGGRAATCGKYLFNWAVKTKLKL

Nc1nc2c(ncn2[C@@H]2O[C@H](COP(=O)(O)OP(=O)(O)OP(=O)(O)O)C[C@H]2O)c(=O)[nH]1 [3′-deoxyguanosine-5′ triphosphate]
Inhibition of NS5B activity (reduced levels of light generated) (HCV NS5B; 30 minute reaction): Dose- and time-dependent inhibition
Mode of inhibition from progress curves (HCV NS5B): consistent with chain termination

Nc1ncnc2c1ncn2[C@@H]1O[C@H](COP(=O)(O)OP(=O)(O)OP(=O)(O)O)[C@@H](O)[C@H]1O [ATP, Adenosine 5′-triphosphate]
Km (firefly luciferase [1]; read-out: Km for the luciferase reaction, under these experimental conditions, data not shown): 0.65 ± 0.04 µM

Nc1ncnc2c1ncn2[C@@H]1O[C@H](COP(O)(=S)OP(=O)(O)OP(=O)(O)O)[C@@H](O)[C@H]1O (stereo partly shown) [ATPαS]
Utilization of NTP as substrate by the ATP sulfurylase/luciferase cascade (background signal) (firefly luciferase [2]): poor substrate for luciferase

Nc1nc2c(ncn2[C@@H]2O[C@H](COP(=O)(O)OP(=O)(O)OP(=O)(O)O)[C@@H](O)[C@H]2O)c(=O)[nH]1 [GTP]
Utilization of NTP as substrate by the ATP sulfurylase/luciferase cascade (background signal) (firefly luciferase [2]): lowest level of signal

O=P(O)(O)OP(=O)(O)OP(=O)(O)OC[C@H]1O[C@@H](n2cnc3c(O)ncnc32)[C@H](O)[C@@H]1O [Inosine triphosphate (ITP), Inosine triphosphate]
Luciferase substrate quality relative to GTP (firefly luciferase [1]; reactions without RdRp or template, nucleotide 1 μM final): about 10 fold
Utilization of NTP as substrate by the ATP sulfurylase/luciferase cascade (background signal) (firefly luciferase [2]): relatively good luciferase substrate
